Test results: ChEMBL document CHEMBL3352733, “Liver x receptor agonists for the treatment of coronary heart disease and other disorders” (ACS Med Chem Lett, 2014)

molecular target: T1, Oxysterols receptor LXR-beta (Homo sapiens) (UniProt P55055); experiment: Agonist activity at human LXRbeta expressed in CV1 cells after 20 hrs by luciferase reporter co-transfection assay relative to control; assay type: cell-based; settings: CV-1
T1 sequence (whole entry): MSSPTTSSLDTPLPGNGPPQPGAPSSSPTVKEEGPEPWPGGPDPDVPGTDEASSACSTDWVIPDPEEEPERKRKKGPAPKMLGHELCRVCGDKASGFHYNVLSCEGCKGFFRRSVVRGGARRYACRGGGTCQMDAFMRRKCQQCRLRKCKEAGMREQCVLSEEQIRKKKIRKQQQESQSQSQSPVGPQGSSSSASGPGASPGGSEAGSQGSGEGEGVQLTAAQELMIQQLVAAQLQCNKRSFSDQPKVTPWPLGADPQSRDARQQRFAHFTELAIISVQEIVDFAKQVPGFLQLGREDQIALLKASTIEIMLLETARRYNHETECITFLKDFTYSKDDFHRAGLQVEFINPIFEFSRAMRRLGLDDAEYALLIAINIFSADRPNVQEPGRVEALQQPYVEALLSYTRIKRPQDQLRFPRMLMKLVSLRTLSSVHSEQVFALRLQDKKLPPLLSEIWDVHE

Row | Efficacy [%] | Compound
1 | 116 | Cc1nc(C(F)(F)F)c(Cl)n1-c1ccc(-c2cc(F)c(CO)c(S(C)(=O)=O)c2)cc1-n1nncc1-c1ccc(OC(F)(F)F)cc1
2 | 75 | Cc1nc(C(F)(F)F)cn1-c1ccc(-c2cc(F)c(CO)c(S(C)(=O)=O)c2)cc1-c1nc(C(C)C)oc1-c1ccc(OC(F)(F)F)cc1
3 | 100 | Cc1nc(C(F)(F)F)cn1-c1ccc(-c2cccc(S(C)(=O)=O)c2)cc1-n1nncc1Cc1cccc(Cl)c1
4 | 85 | Cc1nc(C(F)(F)F)cn1-c1c(F)cc(-c2cccc(S(C)(=O)=O)c2)cc1-n1nncc1-c1ccc(Cl)cc1
